Data published in patent publication US8530465B2, “1, 2-disubstituted amido-anthraquinone derivatives, preparation method and application thereof” (National Defense Medical Center, priority 2010, dated 2013).

Tests used:
[1] = tested on: HL-60(TB); assay: NCI drug screen, HL-60(TB); format: cell-based, human; details: HL-60(TB) (Leukemia); 1.00E−5 Molar
Experimental: (§1) In brief, cellular protein levels were determined after 48 hours of drug exposure by sulforhodamine B colorimetry. Through the use of a time 0 cell control, the cell growth can be determined for each cell line thus allowing calculations of the 50% growth inhibitory concentration (GI50), the total growth inhibition (TGI), and the 50% lethal concentration (LC50). Comparison to plates not exposed to drug permits determination of concentration and times of exposure conferring 50% net growth inhibition (GI50), TGI, and 50% cell kill (LC50).
(§2) The screening system in United State National Cancer Institute (NCI) is consisted of 60 kinds of different human cancer cells, which can be used to assay the growth-inhibiting ability or cell toxicity of a compound against various cancer and tumor at a certain concentration.

[2] = tested on: OVCAR-8; assay: NCI drug screen, OVCAR-8; format: cell-based, human; details: OVCAR-8 (Ovarian Cancer); 1.00E−5 Molar
Experimental: as §1, §2

[3] = tested on: HOP-92; assay: NCI drug screen, HOP-92; format: cell-based, human; details: HOP-92 (Non-Small Cell Lung Cancer); 1.00E−5 Molar
Experimental: as §1, §2

[4] = tested on: SK-MEL-5; assay: NCI drug screen, SK-MEL-5; format: cell-based, human; details: SK-MEL-5 (Melanoma); 1.00E−5 Molar
Experimental: as §1, §2

[5] = tested on: OVCAR-5; assay: NCI drug screen, OVCAR-5; format: cell-based, human; details: OVCAR-5 (Ovarian Cancer); 1.00E−5 Molar
Experimental: as §1, §2

[6] = tested on: MOLT-4; assay: NCI drug screen, MOLT-4; format: cell-based, human; details: MOLT-4 (Leukemia); 1.00E−5 Molar
Experimental: as §1, §2

[7] = tested on: HCT-116; assay: NCI drug screen, HCT-116; format: cell-based, human; details: HCT-116 (Colon Cancer); 1.00E−5 Molar
Experimental: as §1, §2

[8] = tested on: COLO 205; assay: NCI drug screen, COLO 205; format: cell-based, human; details: COLO 205 (Colon Cancer); 1.00E−5 Molar
Experimental: as §1, §2

[9] = tested on: HCC-2998; assay: NCI drug screen, HCC-2998; format: cell-based, human; details: HCC-2998 (Colon Cancer); 1.00E−5 Molar
Experimental: as §1, §2

[10] = tested on: K562; assay: NCI drug screen, K562; format: cell-based, human; details: K562 (Leukemia); 1.00E−5 Molar
Experimental: as §1, §2

[11] = tested on: NCI-H522; assay: NCI drug screen, NCI-H522; format: cell-based, human; details: NCI-H522 (Non-Small Cell Lung Cancer); 1.00E−5 Molar
Experimental: as §1, §2

[12] = tested on: TK-10; assay: NCI drug screen, TK-10; format: cell-based, human; details: TK-10 (Renal Cancer); 1.00E−5 Molar
Experimental: as §1, §2

[13] = tested on: MDA-MB-231/ATCC; assay: NCI drug screen, MDA-MB-231/ATCC; format: cell-based, human; details: MDA-MB-231/ATCC (Breast Cancer); 1.00E−5 Molar
Experimental: as §1, §2

[14] = tested on: 60 kinds of different human cancer cells; assay: NCI in vitro 60-cell Drug Screen, whole panel; format: cell-based; details: mean over tested cell lines; 1.00E−5 Molar
Experimental: as §1
From the data analysis it follows that approximately 95% of the actives (potent anticancer drugs) from the 60 cell line screen can be identified. By these criteria, five compounds (each with its certification number, refer to FIG. 4) of the invention were reported that having anticancer activity.
as §2

[15] = tested on: A549/ATCC; assay: NCI drug screen, A549/ATCC; format: cell-based, human; details: A549/ATCC (Non-Small Cell Lung Cancer); 1.00E−5 Molar
Experimental: as §1, §2

[16] = NCI drug screen, A489; format: cell-based, human; details: A489 (Renal Cancer); 1.00E−5 Molar
Experimental: as §1, §2

[17] = tested on: RXF 393; assay: NCI drug screen, RXF 393; format: cell-based, human; details: RXF 393 (Renal Cancer); 1.00E−5 Molar
Experimental: as §1, §2

[18] = tested on: SK-MEL-28; assay: NCI drug screen, SK-MEL-28; format: cell-based, human; details: SK-MEL-28 (Melanoma); 1.00E−5 Molar
Experimental: as §1, §2

[19] = tested on: NCI-H460; assay: NCI drug screen, NCI-H460; format: cell-based, human; details: NCI-H460 (Non-Small Cell Lung Cancer); 1.00E−5 Molar
Experimental: as §1, §2

[20] = tested on: SK-MEL-2; assay: NCI drug screen, SK-MEL-2; format: cell-based, human; details: SK-MEL-2 (Melanoma); 1.00E−5 Molar
Experimental: as §1, §2

[21] = tested on: U251; assay: NCI drug screen, U251; format: cell-based, human; details: U251 (CNS Cancer); 1.00E−5 Molar
Experimental: as §1, §2

[22] = tested on: SK-OV-3; assay: NCI drug screen, SK-OV-3; format: cell-based, human; details: SK-OV-3 (Ovarian Cancer); 1.00E−5 Molar
Experimental: as §1, §2

[23] = tested on: SN12C; assay: NCI drug screen, SN12C; format: cell-based, human; details: SN12C (Renal Cancer); 1.00E−5 Molar
Experimental: as §1, §2

[24] = tested on: NCI-H322M; assay: NCI drug screen, NCI-H322M; format: cell-based, human; details: NCI-H322M (Non-Small Cell Lung Cancer); 1.00E−5 Molar
Experimental: as §1, §2

[25] = tested on: NCI-H226; assay: NCI drug screen, NCI-H226; format: cell-based, human; details: NCI-H226 (Non-Small Cell Lung Cancer); 1.00E−5 Molar
Experimental: as §1, §2

[26] = tested on: EKVX; assay: NCI drug screen, EKVX; format: cell-based, human; details: EKVX (Non-Small Cell Lung Cancer); 1.00E−5 Molar
Experimental: as §1, §2

[27] = tested on: UACC-62; assay: NCI drug screen, UACC-62; format: cell-based, human; details: UACC-62 (Melanoma); 1.00E−5 Molar
Experimental: as §1, §2

[28] = tested on: MALME-3M; assay: NCI drug screen, MALME-3M; format: cell-based, human; details: MALME-3M (Melanoma); 1.00E−5 Molar
Experimental: as §1, §2

[29] = tested on: NCI-H23; assay: NCI drug screen, NCI-H23; format: cell-based, human; details: NCI-H23 (Non-Small Cell Lung Cancer); 1.00E−5 Molar
Experimental: as §1, §2

[30] = tested on: UACC-257; assay: NCI drug screen, UACC-257; format: cell-based, human; details: UACC-257 (Melanoma); 1.00E−5 Molar
Experimental: as §1, §2

[31] = tested on: HS 578-T; assay: NCI drug screen, HS 578-T; format: cell-based, human; details: HS 578-T (Breast Cancer); 1.00E−5 Molar
Experimental: as §1, §2

[32] = tested on: SW-620; assay: NCI drug screen, SW-620; format: cell-based, human; details: SW-620 (Colon Cancer); 1.00E−5 Molar
Experimental: as §1, §2

**Q.** For `Cc1ccc(C(=O)Nc2c(NC(=O)CN3CCCC3)ccc3c2C(=O)c2ccccc2C3=O)cc1` [CC-38, 1-(4-methylbenzamido)-2-[2-(tetrahydro-1H-1-pyrrolyl)acetylamino]-anthra quinone], which “Growth Percent” value [1] is on record?
**A.** 96.11%

**Q.** And the “Growth Percent” value [2]?
**A.** 65.02%

**Q.** What about the “Growth Percent” value [3] of the same molecule?
**A.** 59.33%

**Q.** What about the “Growth Percent” value [4] of the same molecule?
**A.** 61.74%

**Q.** And the “Growth Percent” value [5]?
**A.** 102.31%

**Q.** And the “Growth Percent” value [6]?
**A.** 48.20%

**Q.** And the “Growth Percent” value [7]?
**A.** 58.46%

**Q.** What about the “Growth Percent” value [8] of the same molecule?
**A.** 65.60%

**Q.** And the “Growth Percent” value [9]?
**A.** 84.60%

**Q.** And the “Growth Percent” value [10]?
**A.** 40.86%

**Q.** And the “Growth Percent” value [11]?
**A.** 103.02%

**Q.** What about the “Growth Percent” value [12] of the same molecule?
**A.** 86.85%

**Q.** And the “Growth Percent” value [13]?
**A.** 73.34%

**Q.** And the “Growth Percent, Mean” value [14]?
**A.** 74.53%

**Q.** And the “Growth Percent” value [15]?
**A.** 84.88%

**Q.** What about the “Growth Percent” value [16] of the same molecule?
**A.** 68.12%

**Q.** And the “Growth Percent” value [17]?
**A.** 63.80%

**Q.** What about the “Growth Percent” value [18] of the same molecule?
**A.** 92.18%

**Q.** And the “Growth Percent” value [19]?
**A.** 61.05%

**Q.** What about the “Growth Percent” value [20] of the same molecule?
**A.** 102.17%

**Q.** And the “Growth Percent” value [21]?
**A.** 82.17%

**Q.** And the “Growth Percent” value [22]?
**A.** 82.13%

**Q.** And the “Growth Percent” value [23]?
**A.** 74.82%

**Q.** What about the “Growth Percent” value [24] of the same molecule?
**A.** 82.50%

**Q.** And the “Growth Percent” value [25]?
**A.** 90.22%

**Q.** And the “Growth Percent” value [26]?
**A.** 65.93%

**Q.** What about the “Growth Percent” value [27] of the same molecule?
**A.** 76.82%

**Q.** And the “Growth Percent” value [28]?
**A.** 82.24%

**Q.** And the “Growth Percent” value [29]?
**A.** 73.29%

**Q.** What about the “Growth Percent” value [30] of the same molecule?
**A.** 92.83%

**Q.** What about the “Growth Percent” value [31] of the same molecule?
**A.** 69.39%

**Q.** What about the “Growth Percent” value [32] of the same molecule?
**A.** 82.29%
